This note sets out measurements from ChEMBL document CHEMBL5107975, “HIV nucleoside reverse transcriptase inhibitors” (Eur J Med Chem, 2022).

Some results are limits rather than exact numbers.

A short description of data set [1]: Oral bioavailability in human relative to control. The data set is classed as ADME, organism-based. The conditions noted are these: in vivo.
The nature of data set [2]: Drug elimination in human urine assessed as unchanged drug administered po relative to control. The data set is classed as ADME, organism-based. Particulars: read-out: Drug excretion.
Data set [3] in a line: Elimination half life in human administered po. The conditions noted are these: read-out: LambdaZ (converted). The data set is classed as ADME.
The test system of data set [4] is Human immunodeficiency virus 1. In words: Antiviral activity against HIV-1. Type of data set: functional, organism-based.

In data set [1], `C=C1[C@H](CO)[C@@H](O)C[C@@H]1n1cnc2c(=O)[nH]c(N)nc21.O` [ENTECAVIR] yielded a bioavailability of 100%. In addition, in data set [2], the dose excreted is 62%. In addition, in data set [3], the half-life is 128 h. Moreover, the half-maximal effective concentration (EC50) in data set [4] is above 1000 nM.

In data set [4], `Nc1ccn([C@@H]2CS[C@H](CO)O2)c(=O)n1` [LAMIVUDINE] showed an EC50 of 2 nM. In other words, the single-digit nanomolar range.
